In patent US20250179073A1, “TRICYCLIC HETEROCYCLE COMPOUNDS AS IAP ANTAGONISTS” (Ascentage Pharma (Suzhou) Co., Ltd., priority 2022, published 2025):

What was measured:
MDA-MB-231 cells = assay: Cell proliferation assay (CellTiter-Glo), MDA-MB-231; format: cell-based; details: Homo sapiens, MDA-MB-231, 72 h, 72 h treatment, Celltiter-Glo luminescence
How it was run: (§1)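 MDA-MB-231 (RPMI-1640/10% FBS) and EVSA-T (MEM/10% FBS) cells, 10000 cells/well, exposed 72 h to compound at […]. Viability read by CellTiter-Glo luminescence after 15 min at room temperature. IC50 from control-normalised curve fitting.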

EVSA-T cells = assay: Cell proliferation assay (CellTiter-Glo), EVSA-T; format: cell-based; details: Homo sapiens, EVSA-T, 72 h, 72 h treatment, Celltiter-Glo luminescence
How it was run: as §1

SMILES	IC50 (MDA-MB-231 cells) [µM]	IC50 (EVSA-T cells) [µM]
C[C@@H]1CN(CC(=O)N2CC(C)(C)c3c2cc(Cc2ccc(F)cc2)c2nc(C(F)(F)F)cn32)[C@@H](CN2CCOCC23CC3)CN1 [Compound 147, 2-((2R,5R)-2-((7-oxa-4-azaspiro[2.5]octan-4-yl)methyl)-5-methylpiperazin-1-yl)-1-(4-(4-fluorobenzyl)-8,8-dimethyl-2-(trifluoromethyl)-7,8-dihydro-6H-imidazo[1,2-a]pyrrolo[2,3-e]pyridin-6-yl)ethan-1-one]	0.12	0.01
C[C@@H]1CN(CC(=O)N2CC(C)(C)c3c2cc(Cc2ccccc2F)c2ncnn32)[C@@H](CN2CCOC[C@H]2C)CN1 [Compound 38, 1-(4-(2-fluorobenzyl)-8,8-dimethyl-7,8-dihydro-6H-pyrrolo[2,3-e][1,2,4]triazolo[1,5-a]pyridin-6-yl)-2-((2R,5R)-5-methyl-2-(((R)-3-methylmorpholino)methyl)piperazin-1-yl)ethan-1-one]	0.15	0.006
C[C@@H]1CN(CC(=O)N2CC(C)(C)c3c2cc(Cc2ccc(F)cc2)c2nn(CC(F)F)c(=O)n32)[C@@H](CN2CCOC[C@H]2C)CN1 [Compound 264, 2-(2,2-difluoroethyl)-4-(4-fluorobenzyl)-8,8-dimethyl-6-(2-((2R,5R)-5-methyl-2-(((R)-3-methylmorpholino)methyl)piperazin-1-yl)acetyl)-2,6,7,8-tetrahydro-1H-pyrrolo[2,3-e][1,2,4]triazolo[4,3-a]pyridin-1-one]	0.015	0.0047
Cc1cc(F)ccc1Cc1cc2c(n3ncnc13)C(C)(C)CN2C(=O)CN1C[C@@H](C)NC[C@@H]1CN1CCOC[C@H]1C [Compound 115, 1-(4-(4-fluoro-2-methylbenzyl)-8,8-dimethyl-7,8-dihydro-6H-pyrrolo[2,3-e][1,2,4]triazolo[1,5-a]pyridin-6-yl)-2-((2R,5R)-5-methyl-2-(((R)-3-methylmorpholino)methyl)piperazin-1-yl)ethan-1-one]	0.16	0.03
CC(c1ccc(F)cc1)c1cc2c(n3ncnc13)C(C)(C)CN2C(=O)CN1C[C@@H](C)NC[C@@H]1CN1CCOC[C@H]1C (stereo partly drawn) [Compound 45, 1-(4-(1-(4-fluorophenyl)ethyl)-8,8-dimethyl-7,8-dihydro-6H-pyrrolo[2,3-e][1,2,4]triazolo[1,5-a]pyridin-6-yl)-2-((2R,5R)-5-methyl-2-(((R)-3-methylmorpholino)methyl)piperazin-1-yl)ethan-1-one]	0.18	0.04
C[C@@H]1CN(CC(=O)N2CC(C)(C)c3c2cc(Cc2ccc(F)cc2)n2ncnc32)[C@@H](CN2CCOC[C@H]2C)CN1 [Example 25, 1-(5-(4-fluorobenzyl)-9,9-dimethyl-8,9-dihydro-7H-pyrrolo[3,2-c][1,2,4]triazolo[1,5-a]pyridin-7-yl)-2-((2R,5R)-5-methyl-2-(((R)-3-methylmorpholino)methyl)piperazin-1-yl)ethan-1-one]	0.084	0.011
COC(=O)Nc1nc2c(Cc3ccc(F)cc3)cc3c(n2n1)C(C)(C)CN3C(=O)CN1C[C@@H](C)NC[C@@H]1CN1CCOC[C@H]1C [Compound 234, methyl (4-(4-fluorobenzyl)-8,8-dimethyl-6-(2-((2R,5R)-5-methyl-2-(((R)-3-methylmorpholino)methyl)piperazin-1-yl)acetyl)-7,8-dihydro-6H-pyrrolo[2,3-e][1,2,4]triazolo[1,5-a]pyridin-2-yl)carbamate]	0.01	0.0007
C[C@@H]1CN(CC(=O)N2CC(C)(C)c3c2cc(Cc2ccc(F)cc2)c2nc(NC=O)nn32)[C@@H](CN2CCOC[C@H]2C)CN1 [Compound 239, N-(4-(4-fluorobenzyl)-8,8-dimethyl-6-(2-((2R,5R)-5-methyl-2-(((R)-3-methylmorpholino)methyl)piperazin-1-yl)acetyl)-7,8-dihydro-6H-pyrrolo[2,3-e][1,2,4]triazolo[1,5-a]pyridin-2-yl)formamide]	0.014	0.0005
C[C@@H]1CN(CC(=O)N2CC(C)(C)c3c2cc(Cc2ccc(F)cc2O)c2ncnn32)[C@@H](CN2CCOC[C@H]2C)CN1 [Compound 42, 1-(4-(4-fluoro-2-hydroxybenzyl)-8,8-dimethyl-7,8-dihydro-6H-pyrrolo[2,3-e][1,2,4]triazolo[1,5-a]pyridin-6-yl)-2-((2R,5R)-5-methyl-2-(((R)-3-methylmorpholino)methyl)piperazin-1-yl)ethan-1-one]	0.1	0.013
C[C@@H]1CN(CC(=O)N2CC(C)(C)c3c2cc(Cc2ccc(F)cc2)c2nc(NC4COC4)nn32)[C@@H](CN2CCOC[C@H]2C)CN1 [Compound 187, 1-(4-(4-fluorobenzyl)-8,8-dimethyl-2-(oxetan-3-ylamino)-7,8-dihydro-6H-pyrrolo[2,3-e][1,2,4]triazolo[1,5-a]pyridin-6-yl)-2-((2R,5R)-5-methyl-2-(((R)-3-methylmorpholino)methyl)piperazin-1-yl)ethan-1-one]	0.008	0.006
CC(O)Cn1nc2c(Cc3ccc(F)cc3)cc3c(n2c1=O)C(C)(C)CN3C(=O)CN1C[C@@H](C)NC[C@@H]1CN1CCOC[C@H]1C (stereo partly drawn) [Compound 269, 4-(4-fluorobenzyl)-2-(2-hydroxypropyl)-8,8-dimethyl-6-(2-((2R,5R)-5-methyl-2-(((R)-3-methylmorpholino)methyl)piperazin-1-yl)acetyl)-2,6,7,8-tetrahydro-1H-pyrrolo[2,3-e][1,2,4]triazolo[4,3-a]pyridin-1-one]	0.01	0.0051
C[C@@H]1CN(CC(=O)N2CC(C)(C)c3c2cc(Cc2ccc(F)cc2)c2nn(Cc4ccncc4)c(=O)n32)[C@@H](CN2CCOC[C@H]2C)CN1 [Compound 254, 4-(4-fluorobenzyl)-8,8-dimethyl-6-(2-((2R,5R)-5-methyl-2-(((R)-3-methylmorpholino)methyl)piperazin-1-yl)acetyl)-2-(pyridin-4-ylmethyl)-2,6,7,8-tetrahydro-1H-pyrrolo[2,3-e][1,2,4]triazolo[4,3-a]pyridin-1-one]	0.069	0.0038
C[C@@H]1CN(CC(=O)N2CC(C)(C)c3c2cc(Cc2ccc(F)cc2)c2nc(C(F)F)nn32)[C@@H](CN2CCOC[C@H]2C)CN1 [Compound 142, 1-(2-(difluoromethyl)-4-(4-fluorobenzyl)-8,8-dimethyl-7,8-dihydro-6H-pyrrolo[2,3-e][1,2,4]triazolo[1,5-a]pyridin-6-yl)-2-((2R,5R)-5-methyl-2-(((R)-3-methylmorpholino)methyl)piperazin-1-yl)ethan-1-one]	0.05	0.002
C[C@@H]1CN(CC(=O)N2CC(C)(C)c3c2cc(Cc2ccc(F)cc2)c2nc(N4CCOCC4)nn32)[C@@H](CN2CCOC[C@H]2C)CN1 [Compound 143, 1-(4-(4-fluorobenzyl)-8,8-dimethyl-2-morpholino-7,8-dihydro-6H-pyrrolo[2,3-e][1,2,4]triazolo[1,5-a]pyridin-6-yl)-2-((2R,5R)-5-methyl-2-(((R)-3-methylmorpholino)methyl)piperazin-1-yl)ethan-1-one]	0.043	0.003
C[C@@H]1CN(CC(=O)N2CC(C)(C)c3c2cc(Cc2ccc(F)cc2)c2nn(Cc4ccccn4)c(=O)n32)[C@@H](CN2CCOC[C@H]2C)CN1 [Compound 192, 4-(4-fluorobenzyl)-8,8-dimethyl-6-(2-((2R,5R)-5-methyl-2-(((R)-3-methylmorpholino)methyl)piperazin-1-yl)acetyl)-2-(pyridin-2-ylmethyl)-2,6,7,8-tetrahydro-1H-pyrrolo[2,3-e][1,2,4]triazolo[4,3-a]pyridin-1-one]	0.038	0.007
C[C@@H]1CN(CC(=O)N2CC(C)(C)c3c2cc(Cc2ccc(F)cc2)c2nc(N4CCOC4=O)nn32)[C@@H](CN2CCOC[C@H]2C)CN1 [Compound 204, 3-(4-(4-fluorobenzyl)-8,8-dimethyl-6-(2-((2R,5R)-5-methyl-2-(((R)-3-methylmorpholino)methyl)piperazin-1-yl)acetyl)-7,8-dihydro-6H-pyrrolo[2,3-e][1,2,4]triazolo[1,5-a]pyridin-2-yl)oxazolidin-2-one]	0.044	0.014
C[C@@H]1CN(CC(=O)N2CC(C)(C)c3c2cc(Cc2ccc(F)cc2)c2nc(C(=O)N(C)C)nn32)[C@@H](CN2CCOC[C@H]2C)CN1 [Compound 251, 4-(4-fluorobenzyl)-N,N,8,8-tetramethyl-6-(2-((2R,5R)-5-methyl-2-(((R)-3-methylmorpholino)methyl)piperazin-1-yl)acetyl)-7,8-dihydro-6H-pyrrolo[2,3-e][1,2,4]triazolo[1,5-a]pyridine-2-carboxamide]	0.13	0.0296
C[C@@H]1CN(CC(=O)N2CC(C)(C)c3c2cc(Cc2ccc(F)cc2)c2nc(C4CC4)nn32)[C@@H](CN2CCOC[C@H]2C)CN1 [Compound 165, 1-(2-cyclopropyl-4-(4-fluorobenzyl)-8,8-dimethyl-7,8-dihydro-6H-pyrrolo[2,3-e][1,2,4]triazolo[1,5-a]pyridin-6-yl)-2-((2R,5R)-5-methyl-2-(((R)-3-methylmorpholino)methyl)piperazin-1-yl)ethan-1-one]	0.021	0.004
C[C@@H]1CN(CC(=O)N2CC(C)(C)c3c2cc(Cc2ccc(F)cc2)c2nc(C4(O)CC4)nn32)[C@@H](CN2CCOC[C@H]2C)CN1 [Compound 244, 1-(4-(4-fluorobenzyl)-2-(1-hydroxycyclopropyl)-8,8-dimethyl-7,8-dihydro-6H-pyrrolo[2,3-e][1,2,4]triazolo[1,5-a]pyridin-6-yl)-2-((2R,5R)-5-methyl-2-(((R)-3-methylmorpholino)methyl)piperazin-1-yl)ethan-1-one]	0.003	0.0046
